assay: recombinant barcode read abundance after kanamycin selection (control-corrected) (log10(CPM+1)); higher = more efficient recombination; sequences stand for … in AGTGCAGAGAAAATCGGCCAGTTTTCTCTGCCTGCAGTCCGCATGCCGT…AGATTTATGCAGCGGACTGCCTTTCTCCCAAAGTGATAAACCGGACAGTATCATGGACCGGTTTTCCCGGTAATCCGTATTTGCAAGGTTGGTTTCACT; site = the 11-nt target
Procedure, shortened: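 Duplicate cultures were plated either on chloramphenicol/ampicillin LB agar, serving as control, or on chloramphenicol/ampicillin/kanamycin with 0.1 mM IPTG. These came from a pooled E. coli library co-electroporated with a donor plasmid, each member pairing a target with an IS621 bridge RNA target-binding loop. Recombination efficiency equals averaged, control-corrected counts per million of recombinant-junction barcodes. It is listed as log10(CPM+1).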
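Further: IS621 recombinase and bridge RNA in Escherichia coli cells.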

Sequence | recombinant barcode read abundance (log10)
CAATATCCTTGGGTTCTAACCTGTTGCCT (site CAATATCCTAG) | 1.09
CAATATCCTTGGGTTCTAACCTGTTGCCT (site CACTATCCTAG) | 0.0197
CAATATCCTTGGGTTCTAACCTGTTGCCT (site CAGTATCCTAG) | 0.143
CAATATCCTTGGGTTCTAACCTGTTGCCT (site CATTATCCTAG) | 0.0807
CAATCTACTTGGGTTCTAACCTGTTGCCT (site CAACCTACTAG) | 0.391
CAATCTACTTGGGTTCTAACCTGTTGCCT (site CAATCTACTAG) | 0.0558
CAATTACCTTGGGTTCTAACCTGTTGCTT (site CAATTACCTAA) | 0.682
CAATTACCTTGGGTTCTAACCTGTTGCTT (site GCGCCCTCTCG) | 0.0793
CACAAACCTTGGGTTCTAACCTGTTGCAG (site AGATGTGCTAG) | 0.054
CACAAACCTTGGGTTCTAACCTGTTGCAG (site CACAAACCTCT) | 1.17
CACAAGTCTTGGGTTCTAACCTGTTGCAG (site CACAAGTCTCG) | 0.519
CACAAGTCTTGGGTTCTAACCTGTTGCAG (site CACAAGTCTCT) | 2
CACAAGTCTTGGGTTCTAACCTGTTGCCG (site CACAAGTCTCG) | 0.657
CACAAGTCTTGGGTTCTAACCTGTTGCCG (site CACAAGTCTCT) | 0.182
CACACACCTTGGGTTCTAACCTGTTGCGT (site CACAATCCTAC) | 0.189
CACACACCTTGGGTTCTAACCTGTTGCGT (site CACACACCTAC) | 2.86
CACACGGCTTGGGTTCTAACCTGTTGCCT (site CACACCGCTAG) | 0.246
CACACGGCTTGGGTTCTAACCTGTTGCCT (site CACACGGCTAG) | 0.518
CACACTACTTGGGTTCTAACCTGTTGCTT (site CACACTACTAA) | 0.0581
CACACTACTTGGGTTCTAACCTGTTGCTT (site TATACTACTAA) | 0.101
CACAGCACTTGGGTTCTAACCTGTTGCCT (site CACAACACTAG) | 0.065
CACAGCACTTGGGTTCTAACCTGTTGCCT (site CACACCACTAG) | 0.00856

Sequence | recombinant barcode read abundance (log10)
CACAGCACTTGGGTTCTAACCTGTTGCCT (site CACAGCACTAG) | 1.44
CACAGCACTTGGGTTCTAACCTGTTGCCT (site CACATCACTAG) | 0.0547
CACAGGCCTTGGGTTCTAACCTGTTGCAG (site CACAGGCCTCT) | 1.98
CACAGGCCTTGGGTTCTAACCTGTTGCAG (site TGTTCAGCTAG) | 0.0715
CACATACCTTGGGTTCTAACCTGTTGCAT (site CACATACCTAT) | 1.87
CACATACCTTGGGTTCTAACCTGTTGCAT (site CACCTTCCTAT) | 0.0683
CACATCACTTGGGTTCTAACCTGTTGCCT (site CACAACACTAG) | 0.122
CACATCACTTGGGTTCTAACCTGTTGCCT (site CACACCACTAG) | 0.225
CACATCACTTGGGTTCTAACCTGTTGCCT (site CACAGCACTAG) | 0.0683
CACATCACTTGGGTTCTAACCTGTTGCCT (site CACATCACTAG) | 0.704
CACATGCCTTGGGTTCTAACCTGTTGCTG (site CACATGCCTCA) | 2
CACATGCCTTGGGTTCTAACCTGTTGCTG (site TTGTACACTGG) | 0.0315
CACCAGACTTGGGTTCTAACCTGTTGCCA (site ACAATCTCTGA) | 0.0296
CACCAGACTTGGGTTCTAACCTGTTGCCA (site CACCAGACTTG) | 0.539
CACCCACCTTGGGTTCTAACCTGTTGCCT (site AACCCACCTAG) | 0.0311
CACCCACCTTGGGTTCTAACCTGTTGCCT (site CACCCACCTAG) | 1.66
CACCCACCTTGGGTTCTAACCTGTTGCCT (site GACCCACCTAG) | 0.0974
CACCCACCTTGGGTTCTAACCTGTTGCCT (site TACCCACCTAG) | 0.0304
CACCCTTCTTGGGTTCTAACCTGTTGCTC (site CACCCTTCTGA) | 1.94
CACCCTTCTTGGGTTCTAACCTGTTGCTC (site TCTGGCCCTAG) | 0.0488
CACCGAGCTTGGGTTCTAACCTGTTGCTA (site CACCGAGCTTA) | 0.528
CACCGAGCTTGGGTTCTAACCTGTTGCTA (site TTGACGACTCG) | 0.177

Sequence | recombinant barcode read abundance (log10)
CACCTTCCTTGGGTTCTAACCTGTTGCAT (site CACATACCTAT) | 0.196
CACCTTCCTTGGGTTCTAACCTGTTGCAT (site CACCTTCCTAT) | 1.77
CACGACCCTTGGGTTCTAACCTGTTGCCT (site CAAGACCCTAG) | 0.0526
CACGACCCTTGGGTTCTAACCTGTTGCCT (site CACGACCCTAG) | 2.05
CACGACCCTTGGGTTCTAACCTGTTGCCT (site CAGGACCCTAG) | 0.0694
CACGACCCTTGGGTTCTAACCTGTTGCCT (site CATGACCCTAG) | 0.16
CACGAGGCTTGGGTTCTAACCTGTTGCCT (site CACGAGACTAG) | 0.707
CACGAGGCTTGGGTTCTAACCTGTTGCCT (site CACGAGCCTAG) | 0.0831
CACGAGGCTTGGGTTCTAACCTGTTGCCT (site CACGAGGCTAG) | 0.527
CACGAGGCTTGGGTTCTAACCTGTTGCCT (site CACGAGTCTAG) | 0.322
CACGATGCTTGGGTTCTAACCTGTTGCCT (site CAAGATGCTAG) | 0.437
CACGATGCTTGGGTTCTAACCTGTTGCCT (site CACGATGCTAG) | 0.789
CACGATGCTTGGGTTCTAACCTGTTGCCT (site CAGGATGCTAG) | 0.226
CACGATGCTTGGGTTCTAACCTGTTGCCT (site CATGATGCTAG) | 0.351
CACGCTTCTTGGGTTCTAACCTGTTGCTA (site CACGCGTCTCA) | 0.0477
CACGCTTCTTGGGTTCTAACCTGTTGCTA (site CACGCTTCTTA) | 1.01
CACGGTCCTTGGGTTCTAACCTGTTGCCT (site CACGGTCCTAG) | 2.13
CACGGTCCTTGGGTTCTAACCTGTTGCCT (site CTCGGTGCTAG) | 0.0233
CACTCTCCTTGGGTTCTAACCTGTTGCAT (site CACTCTCCTAG) | 0.11
CACTCTCCTTGGGTTCTAACCTGTTGCAT (site CACTCTCCTAT) | 0.728
CACTGGTCTTGGGTTCTAACCTGTTGCCT (site CACTGATCTAG) | 0.532
CACTGGTCTTGGGTTCTAACCTGTTGCCT (site CACTGCTCTAG) | 0.0756

Sequence | recombinant barcode read abundance (log10)
CACTGGTCTTGGGTTCTAACCTGTTGCCT (site CACTGGTCTAG) | 1.12
CACTGGTCTTGGGTTCTAACCTGTTGCCT (site CACTGTTCTAG) | 0.0874
CACTTATCTTGGGTTCTAACCTGTTGCCT (site CACTTAACTAG) | 0.149
CACTTATCTTGGGTTCTAACCTGTTGCCT (site CACTTACCTAG) | 0.308
CACTTATCTTGGGTTCTAACCTGTTGCCT (site CACTTAGCTAG) | 0.0751
CACTTATCTTGGGTTCTAACCTGTTGCCT (site CACTTATCTAG) | 0.549
CACTTGCCTTGGGTTCTAACCTGTTGCCT (site CACTTGACTAG) | 0.0347
CACTTGCCTTGGGTTCTAACCTGTTGCCT (site CACTTGCCTAG) | 0.754
CACTTGCCTTGGGTTCTAACCTGTTGCCT (site CACTTGGCTAG) | 0.0743
CACTTGCCTTGGGTTCTAACCTGTTGCCT (site CACTTGTCTAG) | 0.614
CACTTGGCTTGGGTTCTAACCTGTTGCAG (site CACTGGGCTCT) | 0.468
CACTTGGCTTGGGTTCTAACCTGTTGCAG (site CACTTGGCTCT) | 0.706
CAGAAGCCTTGGGTTCTAACCTGTTGCCT (site AAGAAGCCTAG) | 0.661
CAGAAGCCTTGGGTTCTAACCTGTTGCCT (site CAGAAGCCTAG) | 1.65
CAGAAGCCTTGGGTTCTAACCTGTTGCCT (site GAGAAGCCTAG) | 0.193
CAGAAGCCTTGGGTTCTAACCTGTTGCCT (site TAGAAGCCTAG) | 0.0644
CAGACTTCTTGGGTTCTAACCTGTTGCCT (site CAGACTTCTAG) | 0.473
CAGACTTCTTGGGTTCTAACCTGTTGCCT (site CCGACTTCTAG) | 0.375
CAGACTTCTTGGGTTCTAACCTGTTGCCT (site CGGACTTCTAG) | 0.039
CAGACTTCTTGGGTTCTAACCTGTTGCCT (site CTGACTTCTAG) | 0.0642

Source: the supplement of paper PMC11208160
